Assay results published in ChEMBL document CHEMBL1201862, “PubChem BioAssay data set” (2004).
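Where inhibition never reached the appropriate level, the endpoint shown equals the highest concentration tested. Otherwise, values were interpolated linearly from a five-concentration, 48-hour dose response in 96-well plates. Here, GI50 denotes the concentration required for 50% inhibition of growth.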 Calls of active or inactive are those of the source. No stated cut-off is given here; in the data, active = GI50 up to about 1.1 µM and inactive = higher.

What was measured:
Assay in all cases: DTP human tumour cell line panel, 48 h
[1] = system: M14
[2] = system: HL-60
[3] = system: RPMI-8226
[4] = system: Malme-3M
[5] = system: SNB-75
[6] = system: NCI-H460
[7] = system: NCI-H226
[8] = system: HT-29
[9] = system: KM12
[10] = system: RXF 393
[11] = system: Hs-578T
[12] = system: MDA-MB-435
[13] = system: HCT-15
[14] = system: OVCAR-5
[15] = system: SK-OV-3
[16] = system: K562
[17] = system: A549
[18] = system: HOP-62
[19] = system: NCI/ADR-RES
[20] = system: UO-31
[21] = system: SN12C
[22] = system: 786-0
[23] = system: OVCAR-4
[24] = system: U-251
[25] = system: UACC-62
[26] = system: SK-MEL-2
[27] = system: UACC-257
[28] = system: SF-295
[29] = system: SF-268
[30] = system: COLO 205
[31] = system: SF-539
[32] = system: OVCAR-8
[33] = system: TK-10
[34] = system: ACHN
[35] = system: NCI-H23
[36] = system: SW-620
[37] = system: BT-549
[38] = system: SK-MEL-28
[39] = system: SNB-19
[40] = system: LOX IMVI
[41] = system: HOP-92
[42] = system: EKVX
[43] = system: SK-MEL-5
[44] = system: CCRF-CEM
[45] = system: HCC 2998
[46] = system: DU-145
[47] = system: MDA-N
[48] = system: MDA-MB-231
[49] = system: IGROV-1
[50] = system: PC-3
[51] = system: HCT-116
[52] = system: NCI-H522
[53] = system: MOLT-4
[54] = system: CAKI-1
[55] = system: OVCAR-3

Nc1cc(OCC2CCCCC2)nc(N)n1
GI50 [1]: > 100 µM (inactive) | GI50 [2]: > 100 µM (inactive) | GI50 [3]: > 100 µM (inactive) | GI50 [4]: > 100 µM (inactive) | GI50 [5]: 61.2 µM (inactive) | GI50 [6]: > 100 µM (inactive) | GI50 [7]: > 100 µM (inactive) | GI50 [8]: > 100 µM (inactive) | GI50 [9]: > 100 µM (inactive) | GI50 [10]: > 100 µM (inactive) | GI50 [11]: > 100 µM (inactive) | GI50 [12]: > 100 µM (inactive) | GI50 [13]: > 100 µM | GI50 [14]: > 100 µM (inactive) | GI50 [15]: > 100 µM (inactive) | GI50 [16]: > 100 µM (inactive) | GI50 [17]: 93.8 µM (inactive) | GI50 [18]: > 100 µM (inactive) | GI50 [19]: > 100 µM (inactive) | GI50 [20]: > 100 µM (inactive) | GI50 [21]: > 100 µM (inactive) | GI50 [22]: > 100 µM (inactive) | GI50 [23]: > 100 µM (inactive) | GI50 [24]: > 100 µM (inactive) | GI50 [25]: > 100 µM (inactive) | GI50 [26]: > 100 µM (inactive) | GI50 [27]: 76.9 µM (inactive) | GI50 [28]: > 100 µM (inactive) | GI50 [29]: > 100 µM (inactive) | GI50 [30]: 87.3 µM (inactive) | GI50 [31]: > 100 µM (inactive) | GI50 [32]: > 100 µM (inactive) | GI50 [33]: > 100 µM (inactive) | GI50 [34]: > 100 µM (inactive) | GI50 [35]: 84.5 µM (inactive) | GI50 [36]: > 100 µM (inactive) | GI50 [37]: > 100 µM (inactive) | GI50 [38]: > 100 µM (inactive) | GI50 [39]: > 100 µM (inactive) | GI50 [40]: > 100 µM (inactive) | GI50 [41]: > 100 µM (inactive) | GI50 [42]: 57.1 µM (inactive) | GI50 [43]: 37.5 µM (inactive) | GI50 [44]: > 100 µM (inactive) | GI50 [45]: > 100 µM (inactive) | GI50 [46]: > 100 µM (inactive) | GI50 [47]: > 100 µM (inactive) | GI50 [48]: > 100 µM (inactive) | GI50 [49]: 67.9 µM (inactive) | GI50 [50]: > 100 µM (inactive) | GI50 [51]: > 100 µM (inactive) | GI50 [52]: > 100 µM (inactive) | GI50 [53]: 82.2 µM (inactive) | GI50 [54]: > 100 µM (inactive) | GI50 [55]: > 100 µM (inactive)
